According to ChEMBL document CHEMBL5365535, “Selenoneine-inspired selenohydantoins with glutathione peroxidase-like activity” (Bioorg Med Chem, 2023):
Activity calls are given as the source filed them. The rule behind the calls is not given here.

Assays:
[1] = Antioxidant activity assessed as DPPH radical scavenging activity incubated for 60 min by DPPH assay; format: functional
[2] = Glutathione peroxidase-like activity assessed as time to reach completion of the linear part at 20 uM in presence of H2O2 by UV-VIS spectrophotometer analysis; format: physicochemical
[3] = Glutathione peroxidase-like activity assessed as decrease in NADPH level at 20 uM in the presence of H2O2 and glutathione reductase by UV-VIS spectrophotometer analysis (reference value: 37 microM/min); format: physicochemical
[4] = Antioxidant activity assessed as FRAP radical scavenging activity by measuring reduction of Fe3+ complex to Fe2+ analogue incubated for 5 mins by FRAP assay; format: functional; design: reference not given here
[5] = Glutathione peroxidase-like activity assessed as decrease in NADPH level at 20 uM in the presence of cumene hydroperoxide and glutathione reductase by UV-VIS spectrophotometer analysis (reference value: 7 microM/min); format: physicochemical
[6] = Glutathione peroxidase-like activity assessed as time to reach completion of the linear part at 20 uM in presence of cumene hydroperoxide by UV-VIS spectrophotometer analysis; format: physicochemical
[7] = Cytotoxicity against HuAoSMC cells assessed as metabolic activity at below 100 uM incubated for 24 hrs by MTT assay; format: toxicity, cell-based; conditions: human, read-out: Activity
[8] = Antioxidant activity assessed as anti-radical efficiency; format: functional
[9] = Antioxidant activity assessed as rate constant; format: functional
[10] = Antioxidant activity assessed as time to reach reaction completion; format: functional
[11] = Cytotoxicity against HuAoSMC cells assessed as metabolic activity at 1 uM incubated for 24 hrs by MTT assay; format: toxicity, cell-based; conditions: human

Structure (SMILES): O=c1c2ccccc2[se]n1-c1ccccc1 [EBSELEN]
- EC50 [1]: Not Active
- Time [2]: 80 s
- Activity [3]: 75 µM/min
- Activity [4]: inactive
- Activity [5]: 33 µM/min
- Time [6]: 187 s

Structure (SMILES): O=C1NC(=[Se])NC1Cc1ccc(C(F)(F)F)cc1 (configuration not stated)
- viability at 24 h, 100 µM [7]: > 70%
- EC50 ([1]; read-out: EC50): 35 µM
- Time [2]: 100 s
- Activity [3]: 63 µM/min
- Activity [4]: 363 µM
- Activity [8]: 2.1 10^-3/min/µM
- Activity [5]: 32 µM/min
- K [9]: 1.6 s⁻¹
- Time [6]: 180 s
- TIME [10]: 0.233 h

Structure (SMILES): N[C@@H](CCC(=O)N[C@@H](CS)C(=O)NCC(=O)O)C(=O)O [GLUTATHIONE]
- EC50 ([1]; read-out: EC50): 50 µM
- Activity [4]: 94 µM
- Activity [8]: 0.69 10^-3/min/µM
- K [9]: 0.53 s⁻¹
- TIME [10]: 0.483 h

Structure (SMILES): O=C1O[C@H]([C@@H](O)CO)C(O)=C1O [ASCORBIC ACID]
- EC50 ([1]; read-out: EC50): 17.8 µM
- Activity [4]: 1630 µM

Structure (SMILES): NCC[Se][Se]CCN
- Time [2]: 153 s
- Activity [11]: Toxic
- Activity [3]: 53 µM/min
- Activity [5]: 66 µM/min
- Time [6]: 93 s

Structure (SMILES): O=C1NC(=[Se])NC1Cc1ccccc1 (configuration not stated)
- viability at 24 h, 100 µM [7]: > 70%
- EC50 ([1]; read-out: EC50): 37 µM
- Time [2]: 113 s
- Activity [3]: 55 µM/min
- Activity [4]: 219 µM
- Activity [8]: 0.63 10^-3/min/µM
- Activity [5]: 18 µM/min
- K [9]: 0.46 s⁻¹
- Time [6]: 413 s
- TIME [10]: 0.7 h

Structure (SMILES): O=C1NC(=[Se])NC1Cc1ccc(Br)cc1 (configuration not stated)
- viability at 24 h, 100 µM [7]: > 70%
- EC50 ([1]; read-out: EC50): 60 µM
- Time [2]: 127 s
- Activity [3]: 51 µM/min
- Activity [4]: 180 µM
- Activity [5]: 17 µM/min
- Time [6]: 393 s

Structure (SMILES): COc1ccc(CC2NC(=[Se])NC2=O)cc1 (configuration not stated)
- viability at 24 h, 100 µM [7]: > 70%
- EC50 ([1]; read-out: EC50): 38 µM
- Time [2]: 140 s
- Activity [3]: 49 µM/min
- Activity [4]: 314 µM
- Activity [8]: 1.4 10^-3/min/µM
- Activity [5]: 13 µM/min
- K [9]: 1.2 s⁻¹
- Time [6]: 467 s
- TIME [10]: 0.3 h

Structure (SMILES): Cc1ccc(CC2NC(=[Se])NC2=O)cc1 (configuration not stated)
- viability at 24 h, 100 µM [7]: > 70%
- EC50 ([1]; read-out: EC50): 89 µM
- Time [2]: 107 s
- Activity [3]: 55 µM/min
- Activity [4]: 116 µM
- Activity [5]: 18 µM/min
- Time [6]: 367 s

Structure (SMILES): O=C1NC(=[Se])NC1Cc1ccc(F)cc1 (configuration not stated)
- viability at 24 h, 100 µM [7]: > 70%
- EC50 ([1]; read-out: EC50): 39 µM
- Time [2]: 107 s
- Activity [3]: 57 µM/min
- Activity [4]: 439 µM
- Activity [8]: 1.05 10^-3/min/µM
- Activity [5]: 13 µM/min
- K [9]: 0.89 s⁻¹
- Time [6]: 460 s
- TIME [10]: 0.4 h

Structure (SMILES): O=C1NC(=[Se])NC1Cc1cccc2ccccc12 (configuration not stated)
- viability at 24 h, 100 µM [7]: > 70%
- EC50 ([1]; read-out: EC50): 44 µM
- Time [2]: 187 s
- Activity [3]: 39 µM/min
- Activity [4]: 271 µM
- Activity [8]: 1 10^-3/min/µM
- Activity [5]: 18 µM/min
- K [9]: 0.84 s⁻¹
- Time [6]: 360 s
- TIME [10]: 0.367 h

Structure (SMILES): O=C1NC(=[Se])NC1Cc1ccc(Cl)cc1 (configuration not stated)
- viability at 24 h, 100 µM [7]: > 70%
- EC50 ([1]; read-out: EC50): 44 µM
- Time [2]: 113 s
- Activity [3]: 54 µM/min
- Activity [4]: 421 µM
- Activity [8]: 2.1 10^-3/min/µM
- Activity [5]: 27 µM/min
- K [9]: 2.28 s⁻¹
- Time [6]: 253 s
- TIME [10]: 0.183 h
